What follows are compounds tested on P493-6 (myc "on") cells (assay: Cell Proliferation Assay). Details: P493-6, 72 h, read-out: Cell prolif P493 72 h IC50, P493-6 cells, 72 h.
Type: cell-based
Experimental: P493-6 (myc “on”) cells were maintained in growth media (RPMI-1640, 10% FBS, 2 mM glutamine, 100 units/ml Penicillin and 100 μg/ml streptomycin) at 37° C. with 5% CO2. For compound assay, P493-6 cells were plated in 96-well V-bottom plates on the day of compound addition in 50 μl of growth media at a cell density of 200,000 cells/ml (10,000 cells/well). Compounds were serially diluted in 100% DMSO at 200-times the final concentration. Compounds were diluted 100-fold into growth media and then 50 μl of this mixture was added to cell plates making the final concentration of DMSO 0.5%. Cells were incubated with compound for 72 hrs at 37° C. with 5% CO2 and analyzed for antiproliferative effects either by Cell Titer Glo (Promega) or FACS analysis using the Viacount (Millipore) kit on the Guava instrument.

Compound | IC50 [nM]
COC(=O)NC(C)c1cccc(CC(=O)Nc2ccc(CCCCc3nnc(NC(=O)Cc4ccccc4)s3)nn2)c1 (stereo not shown) [Compound 589] | 25
COc1ccccc1CC(=O)Nc1nnc(CCCCc2ccc(NC(=O)Cc3ccccc3Cl)nn2)s1 [Compound 531] | 42
CC(C(=O)Nc1nnc(CCCCc2ccc(NC(=O)Cc3cccc(CNC(=O)CC(O)C(F)(F)F)c3)nn2)s1)c1ccccc1 (stereo not shown) [Compound 606] | 45
O=C(Cc1ccccc1)Nc1ccc(CCCCc2nnc(NC(=O)Cc3cccc(CNC(=O)c4ccccc4)c3)s2)nn1 [Compound 432] | 4
CC(C)(C)OC(=O)NCc1cc(CC(=O)Nc2nnc(CCCCc3ccc(NC(=O)Cc4ccccc4)nn3)s2)ccc1F [Compound 492] | 14
CC(=O)N1CCN(Cc2cc(CC(=O)Nc3nnc(CCCCc4ccc(NC(=O)Cc5ccccc5)nn4)s3)ccc2F)CC1 [Compound 528] | 44
O=C(Cc1ccccc1)Nc1ccc(CCCCc2nnc(NC(=O)CC3=CN4CCCN=C4S3)s2)nn1 [Compound 511] | 1100
CS(=O)(=O)CCCOc1cccc(CC(=O)Nc2ccc(CCCCc3nnc(NC(=O)Cc4ccccc4)s3)nn2)c1 [Compound 623] | 26
CC(C)NC(=O)Nc1nnc(CCCCc2nnc(NC(=O)Cc3ccccc3)s2)s1 [Compound 438] | 880
O=C(Nc1ccc(CCCCc2nnc(NC(=O)C(O)c3cccc(Cl)c3)s2)nn1)C(O)c1cccc(Cl)c1 (stereo not shown) [Compound 446] | 150
NCc1cccc(CC(=O)Nc2nnc(CCCCc3nnc(NC(=O)Cc4ccccc4)s3)s2)c1 [Compound 437] | 72
CC(=O)NCc1cccc(CC(=O)Nc2nnc(CCCCc3ccc(NC(C)=O)nn3)s2)c1 [Compound 459] | 570
CCOc1ccc(CC(=O)Nc2nnc(CCCCc3ccc(NC(=O)Cc4ccccc4)nn3)s2)cc1OC [Compound 547] | 31
O=C(Cc1ccccc1)Nc1ccc(CCCCc2nnc(NC(=O)Cc3cccc(CN4CCCCC4=O)c3)s2)nn1 [Compound 476] | 12
O=C(Cc1ccccc1)Nc1ccc(CCCCc2nnc(NC(=O)Cc3cccc(Cl)c3F)s2)nn1 [Compound 545] | 46
CC(C(=O)Nc1ccc(CCCCc2nnc(NC(=O)C(C)c3ccccc3)s2)nn1)c1ccccc1 (stereo not shown) [Compound 613] | 450
O=C(Cc1ccccc1)Nc1ccc(CCCCc2nnc(NC(=O)C(O)c3ccc(-c4ccccc4)cc3OCCO)s2)nn1 (stereo not shown) [Compound 504] | 120
CCOC(=O)NCc1cccc(CC(=O)Nc2ccc(CCCCc3nnc(NC(=O)Cc4cccc(CNC(=O)OCC)c4)s3)nn2)c1 [Compound 572] | 4

Same assay, conditions: P493-6, 72 h, read-out: Cell prolif P493 72 h IC50, P493 cells, 72 h

Compound | IC50 [nM]
CC(C(=O)Nc1nnc(CCCCc2nnc(NC(=O)C(C)c3ccccc3Cl)s2)s1)c1ccccc1Cl (stereo not shown) [Compound 274] | 680
N[C@@H](CO)C(=O)Nc1nnc(CCCCc2nnc(NC(=O)[C@@H](N)CO)s2)s1 [Compound 140] | > 50000
O=C(Cc1ccccc1)Nc1nnc(CCSCc2nnc(NC(=O)Cc3cccc(OCCN4CCOCC4)c3)s2)s1 [Compound 378] | 90
CC(C)(C)OC(=O)Nc1ccc(CC(=O)Nc2nnc(CCCCc3nnc(NC(=O)Cc4ccc(NC(=O)OC(C)(C)C)cc4)s3)s2)cc1 [Compound 192] | 30
CC1(C)OCC(C(=O)Nc2nnc(CCCCc3nnc(NC(=O)Cc4ccccc4)s3)s2)(c2ccccc2)O1 (stereo not shown) [Compound 279] | 7000
O=C(Cc1ccco1)Nc1nnc(CCSCCc2nnc(NC(=O)Cc3ccco3)s2)s1 [Compound 82] | 1300
O=C(Nc1nnc(CCCCc2nnc(NC(=O)C(O)(CO)c3ccccc3)s2)s1)C(O)(CO)c1ccccc1 (stereo not shown) [Compound 278] | 160
CC(C)(C)OC(=O)N1CCN(C(C(=O)Nc2nnc(CCSCCc3nnc(NC(=O)Cc4ccccc4)s3)s2)c2ccccc2)CC1 (stereo not shown) [Compound 70] | 3400
O=C(Cc1ccccc1)Nc1nnc(CCCCc2nnc(NC(=O)[C@@H]3CCCC[C@H]3C(O)c3ccccc3)s2)s1 (stereo partly shown) [Compound 304] | 4900
O=C(Cc1ccccc1F)Nc1nnc(CCCCc2nnc(NC(=O)Cc3ccccc3F)s2)s1 [Compound 292] | 12
NCc1cccc(CC(=O)Nc2nnc(CCCCc3ccc(NC(=O)Cc4ccccc4)nn3)s2)c1 [Compound 341] | 39
CC(C)(C)C(=O)OCN(C(=O)Cc1ccccc1)c1nnc(CCSCCc2nnc(N(COC(=O)C(C)(C)C)C(=O)Cc3ccccc3)s2)s1 [Compound 16] | 800
Nc1nnc(CCSCCc2nnc(NC(=O)[C@@H]3CCCN3C(=O)C(F)(F)F)s2)s1 [Compound 23] | > 50000
O=C(CCN1CCOCC1)OC(C(=O)Nc1nnc(CCCCc2nnc(NC(=O)C(O)c3cccc(Cl)c3)s2)s1)c1cccc(Cl)c1 (stereo not shown) [Compound 358] | 110
COc1ccc(CC(=O)Nc2nnc(CCSCCc3nnc(NC(=O)Cc4ccc(OC)cc4)s3)s2)cc1 [Compound 161] | 1400
O=C(Cc1ccccc1)Nc1nnc(CCSCc2nnc(NC(=O)Cc3ccccc3)s2)s1 [Compound 199] | 170
CC(C)(C)OC(=O)N1CCC(CC(=O)Nc2nnc(CCSCCc3nnc(NC(=O)CC4CCN(C(=O)OC(C)(C)C)CC4)s3)s2)CC1 [Compound 111] | 880
CC(C)(C)C(=O)OCN(C(=O)Cc1ccccc1)c1nnc(CCSCCc2nnc(NC(=O)Cc3ccccc3)s2)s1 [Compound 15] | 1200
COc1ccccc1C(CO)C(=O)Nc1nnc(CCSCCc2nnc(NC(=O)C(CO)c3ccccc3OC)s2)s1 (stereo not shown) [Compound 245] | 2500
O=C(Cc1cccc(F)c1)Nc1nnc(CCCCc2nnc(NC(=O)Cc3cccc(F)c3)s2)s1 [Compound 273] | 70
Cc1cccc(CC(=O)Nc2nnc(CCSCCc3nnc(NC(=O)Cc4cccc(C)c4)s3)s2)c1 [Compound 247] | 830
O=C(Nc1nnc(CCCCc2nnc(NC(=O)C(O)c3ccccc3Br)s2)s1)C(O)c1ccccc1Br (stereo not shown) [Compound 287] | 1300

Compound | IC50 [nM]
O=C(Nc1nnc(CCCc2nnc(NC(=O)C(CO)c3ccccc3)s2)s1)C(CO)c1ccccc1 (stereo not shown) [Compound 176] | 1500
O=C(Cc1ccccc1CO)Nc1nnc(CCCCc2nnc(NC(=O)Cc3ccccc3CO)s2)s1 [Compound 208] | 9000
O=C(Cc1ccccc1)Nc1nnc(CCSCc2nnc(NC(=O)Cc3cccc(Cl)c3)s2)s1 [Compound 372] | 150
CC1(C(=O)Nc2nnc(CCCCc3nnc(NC(=O)C4(C)CCCO4)s3)s2)CCCO1 (stereo not shown) [Compound 123] | 6600
NS(=O)(=O)c1ccc(CC(=O)Nc2nnc(CCCCc3nnc(NC(=O)Cc4ccc(S(N)(=O)=O)cc4)s3)s2)cc1 [Compound 198] | > 50000
O=C(Cc1ccccc1)Nc1nnc(CCCCc2nnc(NC(=O)Cc3c(Cl)ccc(O)c3F)s2)s1 [Compound 345] | 240
O=C(Nc1nnc(CCCCc2nnc(NC(=O)C(O)c3ccccc3)s2)s1)C(O)c1ccccc1 (stereo not shown) [Compound 174] | 440
O=C(Nc1nnc(CCCCc2nnc(NC(=O)C3Cc4cc(Cl)ccc4O3)s2)s1)C1Cc2cc(Cl)ccc2O1 (stereo not shown) [Compound 120] | 38000
CCCC(=O)OCN(C(=O)Cc1ccccc1)c1nnc(CCSCCc2nnc(NC(=O)Cc3ccccc3)s2)s1 [Compound 7] | 1000
CC(C)(C)OC(=O)Nc1cccc(CC(=O)Nc2nnc(CCSCCc3nnc(NC(=O)Cc4cccc(NC(=O)OC(C)(C)C)c4)s3)s2)c1 [Compound 98] | 3900
CC(C)(C)OC(=O)NCc1cccc(CC(=O)Nc2ccc(CCCCc3nnc(NC(=O)Cc4ccccc4)s3)nn2)c1 [Compound 367] | 6
CC(=O)Nc1nnc(CCSCCc2nnc(NC(=O)Cc3ccccc3)s2)s1 [Compound 25] | 1500
CO[C@H](C(=O)Nc1nnc(CCCCc2nnc(NC(=O)[C@@H](OC)c3ccccc3)s2)s1)c1ccccc1 [Compound 148] | 390
O=C(Cc1ccccc1)Nc1nnc(CCCc2nnc(NC(=O)Cc3ccccc3)s2)s1 [Compound 72, N,N′-[5,5′-(propane-1,3-diyl)-bis(1,3,4-thiadiazole-5,2-diyl)]-bis(2-phenylacetamide)] | 470
COc1ccccc1CC(=O)Nc1nnc(CCSCc2nnc(NC(=O)Cc3ccccc3OC)s2)s1 [Compound 249] | 160
O=CO[C@@H](C(=O)Nc1nnc(CCCCc2nnc(NC(=O)[C@H](OC=O)c3ccccc3)s2)s1)c1ccccc1 [Compound 68] | 340
COCC(C(=O)Nc1nnc(CCSCCc2nnc(NC(=O)C(COC)c3ccccc3)s2)s1)c1ccccc1 (stereo not shown) [Compound 204] | 2400
O=C(Nc1nnc(CCCCc2nnc(NC(=O)C3Cc4ccccc4O3)s2)s1)C1Cc2ccccc2O1 (stereo not shown) [Compound 51] | 1300
COc1ccccc1CC(=O)Nc1nnc(CCSCCc2nnc(NC(=O)Cc3ccccc3OC)s2)s1 [Compound 219] | 570
CCC(C)C(=O)Nc1nnc(CCCCc2nnc(NC(=O)C(C)CC)s2)s1 (stereo not shown) [Compound 107] | 1200
CC(C)[C@H](N)C(=O)Nc1nnc(CCSCCc2nnc(NC(=O)Cc3ccccc3)s2)s1 [Compound 32] | 11000
CCOc1ccccc1CC(=O)Nc1nnc(CCCCc2nnc(NC(=O)Cc3ccccc3OCC)s2)s1 [Compound 300] | 160

Same assay, conditions: read-out: Cell prolif P493 72 h IC50; P493-6 cells, 72 h

Compound | IC50 [nM]
CCCC(=O)OC(C(=O)Nc1nnc(CCCCc2ccc(NC(=O)Cc3ccccc3)nn2)s1)c1cccc(Cl)c1 (stereo not shown) [Compound 439] | 56
Nc1nnc(CCCCc2ccc(NC(=O)Cc3cccc(OC(F)(F)F)c3)nn2)s1 [Compound 657, N-(6-(4-(5-amino-1,3,4-thiadiazol-2-yl)butyl)pyridazin-3-yl)-2-(3-(trifluoromethoxy)phenyl)acetamide] | 1500
